Experimental data: US20250051347A1, “BIFUNCTIONAL CHIMERIC HETEROCYCLIC COMPOUND AND USE THEREOF AS ANDROGEN RECEPTOR DEGRADER” (Hinova Pharmaceuticals, Inc., priority 2021, published 2025)
Where two headings read alike, the source gives them in different places.

What was measured:
[1] = target: T1, androgen receptor (AR) splicing variant AR-v7 (Homo sapiens, UniProt P10275); test: Degradation activity on androgen receptor splicing variant AR-v7 in 22RV1 cells (ELISA); assay type: cell-based; conditions: AR-v7 degradation in 22RV1 cells, 48 h, class symbols
T1 construct: The degradation activity of compounds on AR-v7 in 22RV1 cells; host or cells: 22RV1 cells
T1 sequence (P10275 1-644 isoform P10275-3): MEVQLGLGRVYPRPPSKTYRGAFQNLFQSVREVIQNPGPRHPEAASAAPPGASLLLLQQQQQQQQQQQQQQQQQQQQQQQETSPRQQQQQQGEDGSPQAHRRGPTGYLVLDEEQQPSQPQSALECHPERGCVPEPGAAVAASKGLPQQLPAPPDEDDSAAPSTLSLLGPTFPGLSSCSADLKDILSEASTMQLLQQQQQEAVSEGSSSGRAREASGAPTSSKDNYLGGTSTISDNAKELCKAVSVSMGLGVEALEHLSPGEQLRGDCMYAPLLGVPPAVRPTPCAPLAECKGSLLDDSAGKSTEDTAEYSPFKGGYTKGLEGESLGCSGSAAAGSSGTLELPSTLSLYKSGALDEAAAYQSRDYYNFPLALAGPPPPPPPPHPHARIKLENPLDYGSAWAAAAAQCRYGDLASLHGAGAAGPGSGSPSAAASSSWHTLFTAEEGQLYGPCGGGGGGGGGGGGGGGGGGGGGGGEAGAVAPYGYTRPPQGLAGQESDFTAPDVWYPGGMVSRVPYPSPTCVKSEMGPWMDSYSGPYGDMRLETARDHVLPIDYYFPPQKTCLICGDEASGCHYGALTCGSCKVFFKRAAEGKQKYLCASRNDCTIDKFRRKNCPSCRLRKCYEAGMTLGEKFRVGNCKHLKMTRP

[2] = Homo sapiens, 22Rv1, 144 h, read-out: 22RV1 IC50 (nM), 22RV1 cells, 6 days culture, CCK-8, OD 450 nm
[3] = Homo sapiens, 22Rv1, 144 h, read-out: 22RV1 IC50 (nM)

DC50 [1] [nM]	IC50 (22RV1 cells; [2]) [nM]	IC50 (22RV1 cells; read-out: 22RV1 IC50, 22RV1 cells, 6 days culture, CCK-8, OD 450 nm) [nM]	SMILES	IC50 (22RV1 cells; [3]) [nM]
< 10	12	–	Cc1nc(-c2ncc(Oc3ccc(C(C)c4ccc(O[C@H]5C[C@H](Nc6ccc7c(c6)C(=O)N(C6CCC(=O)NC6=O)C7=O)C5)cc4)cc3)cn2)no1 (some centres unmarked) [Example 480]	–
< 10	7	–	CC(O)c1nccc(COc2ccc(C(C)(C)c3ccc(O[C@H]4C[C@@H](Nc5ccc6c(c5)C(=O)N(C5CCC(=O)NC5=O)C6=O)C4)cc3)cc2)n1 (some centres unmarked) [Example 492]	–
< 10	7	–	CC(C)(c1ccc(NC2CC(Nc3ccc4c(c3)C(=O)N(C3CCC(=O)NC3=O)C4=O)C2)cc1)c1ccc(OCc2ccnc(N3CC4(COC4)C3)n2)cc1 (centres unmarked) [Example 494, 5-((3-((4-(2-(4-((2-(2-oxa-6-azaspiro[3.3]heptan-6-yl)pyrimidin-4-yl)methoxy)phenyl)propan-2-yl)phenyl)amino)cyclobutyl)amino)-2-(2,6-dioxopiperidin-3-yl)isoindolin-1,3-dione]	–
< 10	4	–	CC(C)(c1ccc(OCc2ccnc(N3CC4(COC4)C3)n2)cc1)c1ccc(C(=O)NC2CN(c3ccc4c(c3)C(=O)N(C3CCC(=O)NC3=O)C4=O)C2)cc1 (centres unmarked) [Example 506, 4-(2-(4-((2-(2-oxa-6-azaspiro[3.3]heptan-6-yl)pyrimidin-4-yl)methoxy)phenyl)propan-2-yl)-N-(1-(2-(2,6-dioxopiperidin-3-yl)-1,3-dioxoisoindolin-5-yl)azetidin-3-yl)benzamide]	–
< 10	8	–	Cc1nc(-c2ncc(F)cc2Oc2ccc(C(C)(C)c3ccc(O[C@H]4C[C@H](Nc5ccc6c(c5)C(=O)N(C5CCC(=O)NC5=O)C6=O)C4)cc3)cc2)no1 (some centres unmarked) [Example 512]	–
< 10	12	–	CC(C)(c1ccc(Oc2nnc(N3CCOCC3)s2)cc1)c1ccc(O[C@H]2C[C@H](Nc3ccc4c(c3)C(=O)N(C3CCC(=O)NC3=O)C4=O)C2)cc1 (some centres unmarked) [Example 513]	–
< 10	–	16	CC(C)(c1ccc(Oc2cc(F)cnc2-n2ccnn2)cc1)c1ccc(O[C@H]2C[C@H](Nc3ccc4c(c3)C(=O)N(C3CCC(=O)NC3=O)C4=O)C2)cc1 (some centres unmarked) [Example 517]	–
< 10	13	–	CC(c1ccc(Oc2cnc(-n3nccn3)nc2)cc1)c1ccc(O[C@H]2C[C@H](Nc3ccc4c(c3)C(=O)N(C3CCC(=O)NC3=O)C4=O)C2)cc1 (some centres unmarked) [Example 518]	–
11 to 100	7	–	CC(O)c1ccc(Oc2ccc(C(C)(C)c3ccc(O[C@H]4C[C@@H](Nc5ccc6c(c5)C(=O)N(C5CCC(=O)NC5=O)C6=O)C4)cc3)cc2)nn1 (some centres unmarked) [Example 522]	–
< 10	6	–	CC(=O)c1ccc(Oc2ccc(C(C)(C)c3ccc(O[C@H]4C[C@@H](Nc5ccc6c(c5)C(=O)N(C5CCC(=O)NC5=O)C6=O)C4)cc3)cc2)nn1 (some centres unmarked) [Example 523]	–
11 to 100	8	–	CC(=O)c1ccc(Oc2ccc(C(C)(C)c3ccc(O[C@H]4C[C@@H](Nc5ccc6c(c5)C(=O)N(C5CCC(=O)NC5=O)C6=O)C4)cc3)cc2)cn1 (some centres unmarked) [Example 525]	–
< 10	3	–	CCC(CC)(c1ccc(Oc2ccc(-c3noc(C)n3)nn2)cc1)c1ccc(O[C@H]2C[C@H](Nc3ccc4c(c3)C(=O)N(C3CCC(=O)NC3=O)C4=O)C2)cc1 (some centres unmarked) [Example 527]	–
< 10	2	–	CC(=O)c1ncc(Oc2ccc(C3(c4ccc(O[C@H]5C[C@H](Nc6ccc7c(c6)C(=O)N(C6CCC(=O)NC6=O)C7=O)C5)cc4)CCCCC3)cc2)cn1 (some centres unmarked) [Example 529]	–
11 to 100	35	–	CC(C)(c1ccc(OCc2cnc(N3CC4(COC4)C3)nc2)cc1)c1ccc(O[C@H]2C[C@H](Nc3ccc4c(c3)C(=O)N(C3CCC(=O)NC3=O)C4=O)C2)cc1 (some centres unmarked) [Example 535]	–
< 10	5	–	Cc1cncc(Oc2ccc(C(C)(C)c3ccc(O[C@H]4C[C@H](Nc5ccc6c(c5)C(=O)N(C5CCC(=O)NC5=O)C6=O)C4)cc3)cc2)n1 (some centres unmarked) [Example 536, 2-(2,6-dioxopiperidin-3-yl)-5-(((1r,3r)-3-(4-(4-((6-methylpyrazin-2-yl)oxy)phenyl)propan-2-yl)phenoxy)amino)isoindolin-1,3-dione]	–
< 10	8	–	CC(C)(c1ccc(OCc2cncc(N3CC4(COC4)C3)n2)cc1)c1ccc(O[C@H]2C[C@H](Nc3ccc4c(c3)C(=O)N(C3CCC(=O)NC3=O)C4=O)C2)cc1 (some centres unmarked) [Example 539]	–
< 10	9	–	CC(C)(c1ccc(Oc2cccnc2)cc1)c1ccc(O[C@H]2C[C@H](Nc3ccc4c(c3)C(=O)N(C3CCC(=O)NC3=O)C4=O)C2)cc1 (some centres unmarked) [Example 547]	–
< 10	8	–	CC(C)(O)c1ncc(Oc2ccc(C(C)(C)c3ccc(O[C@H]4C[C@H](Nc5ccc6c(c5)C(=O)N(C5CCC(=O)NC5=O)C6=O)C4)cc3)cc2)cn1 (some centres unmarked) [Example 548]	–
< 10	7	–	CC(C)(c1ccc(Oc2cnc(CO)nc2)cc1)c1ccc(O[C@H]2C[C@H](Nc3ccc4c(c3)C(=O)N(C3CCC(=O)NC3=O)C4=O)C2)cc1 (some centres unmarked) [Example 549]	–
11 to 100	12	–	CNc1cnc(Oc2ccc(C(C)(C)c3ccc(O[C@H]4C[C@H](Nc5ccc6c(c5)C(=O)N(C5CCC(=O)NC5=O)C6=O)C4)cc3)cc2)cn1 (some centres unmarked) [Example 551]	–
11 to 100	40	–	CC(C)(c1ccc(OCc2ccnc(N3CC4(COC4)C3)n2)cc1)c1ccc(OCC2(Nc3ccc4c(c3)C(=O)N(C3CCC(=O)NC3=O)C4=O)CC2)cc1 (centres unmarked) [Example 564, 5-((1-((4-(2-(4-((2-(2-oxa-6-azaspiro[3.3]heptan-6-yl)pyrimidin-4-yl)methoxy)phenyl)propan-2-yl)phenoxy)methyl)cyclopropyl)amino)-2-(2,6-dioxopiperidin-3-yl)isoindolin-1,3-dione]	–
< 10	5	–	CC(C)(c1ccc(Oc2cc(N3CC4(COC4)C3)ncn2)cc1)c1ccc(O[C@H]2C[C@@H](Nc3ccc4c(c3)C(=O)N(C3CCC(=O)NC3=O)C4=O)C2)cc1 (some centres unmarked) [Example 571]	–
< 10	16	–	CC(C)(c1ccc(Oc2ncnc(N3CC4(COC4)C3)c2F)cc1)c1ccc(O[C@H]2C[C@H](Nc3ccc4c(c3)C(=O)N(C3CCC(=O)NC3=O)C4=O)C2)cc1 (some centres unmarked) [Example 572]	–
< 10	5	–	CC(C)(c1ccc(Oc2ncnc(N3CC4(COC4)C3)c2F)cc1)c1ccc(O[C@H]2C[C@@H](Nc3ccc4c(c3)C(=O)N(C3CCC(=O)NC3=O)C4=O)C2)cc1 (some centres unmarked) [Example 574]	–
< 10	8	–	CC(C)(c1ccc(Oc2cc(-n3nccn3)ncn2)cc1)c1ccc(O[C@H]2C[C@H](Nc3ccc4c(c3)C(=O)N(C3CCC(=O)NC3=O)C4=O)C2)cc1 (some centres unmarked) [Example 578]	–
< 10	7	–	CC(C)(c1ccc(Oc2cncc(-n3nccn3)n2)cc1)c1ccc(O[C@H]2C[C@H](Nc3ccc4c(c3)C(=O)N(C3CCC(=O)NC3=O)C4=O)C2)cc1 (some centres unmarked) [Example 579]	–
< 10	14	–	CC(C)(c1ccc(Oc2cncc(-n3ccnn3)n2)cc1)c1ccc(O[C@H]2C[C@H](Nc3ccc4c(c3)C(=O)N(C3CCC(=O)NC3=O)C4=O)C2)cc1 (some centres unmarked) [Example 580]	–
11 to 100	10	–	CC(C)(c1ccc(Oc2cnc(-n3nccn3)cn2)cc1)c1ccc(O[C@H]2C[C@H](Nc3ccc4c(c3)C(=O)N(C3CCC(=O)NC3=O)C4=O)C2)cc1 (some centres unmarked) [Example 583]	–
< 10	7	–	Cc1nnc(-c2cnc(Oc3ccc(C(C)(C)c4ccc(O[C@H]5C[C@H](Nc6ccc7c(c6)C(=O)N(C6CCC(=O)NC6=O)C7=O)C5)cc4)cc3)cn2)o1 (some centres unmarked) [Example 589]	–
< 10	8	–	CC(C)(c1ccc(Oc2nncs2)cc1)c1ccc(O[C@H]2C[C@H](Nc3ccc4c(c3)C(=O)N(C3CCC(=O)NC3=O)C4=O)C2)cc1 (some centres unmarked) [Example 592]	–

SMILES	DC50 [1] [nM]	IC50 (22RV1 cells; [2]) [nM]	IC50 (22RV1 cells; read-out: 22RV1 IC50, 22RV1 cells, 6 days culture, CCK-8, OD 450 nm) [nM]	IC50 (22RV1 cells; [3]) [nM]
CC(=O)c1nccc(COc2ccc(C(C)(C)c3ccc(O[C@H]4C[C@@H](Nc5ccc6c(c5)C(=O)N(C5CCC(=O)NC5=O)C6=O)C4)cc3)cc2)n1 (some centres unmarked) [Example 491]	< 10	–	–	4
CC(CNc1ccc2c(c1)C(=O)N(C1CCC(=O)NC1=O)C2=O)COc1ccc(C(C)(C)c2ccc(OCc3ccnc(N4CC5(COC5)C4)n3)cc2)cc1 (centres unmarked) [Example 496, 5-((3-(4-(2-(4-((2-(2-oxa-6-azaspiro[3.3]heptan-6-yl)pyrimidin-4-yl)methoxy)phenyl)propan-2-yl)phenoxy)-2-methylpropyl)amino)-2-(2,6-dioxopiperidin-3-yl)isoindolin-1,3-dione]	< 10	–	–	61
CCC(CC)(c1ccc(Oc2ccc(-c3noc(C)n3)nn2)cc1)c1ccc(O[C@H]2C[C@@H](Nc3ccc4c(c3)C(=O)N(C3CCC(=O)NC3=O)C4=O)C2)cc1 (some centres unmarked) [Example 526]	< 10	–	–	5
Cc1nc(-c2ccc(Oc3ccc(C(C)(C)c4ccc(O[C@H]5C[C@H](Nc6ccc7c(c6)C(=O)N(C6CCC(=O)NC6=O)C7=O)C5)cc4)cc3)cn2)no1 (some centres unmarked) [Example 581]	< 10	10	–	–
